In ChEMBL document CHEMBL4266058, “2-Aminoadipic Acid-C(O)-Glutamate Based Prostate-Specific Membrane Antigen Ligands for Potential Use as Theranostics” (ACS Med Chem Lett, 2018):

Target: Glutamate carboxypeptidase 2 (Homo sapiens, UniProt Q04609)
Assay: Inhibition of recombinant human PSMA using [3H]NAAG as substrate preincubated for 15 mins followed by substrate addition measured after 20 mins by liquid scintillation method

Chain of Glutamate carboxypeptidase 2 (Q04609 whole entry): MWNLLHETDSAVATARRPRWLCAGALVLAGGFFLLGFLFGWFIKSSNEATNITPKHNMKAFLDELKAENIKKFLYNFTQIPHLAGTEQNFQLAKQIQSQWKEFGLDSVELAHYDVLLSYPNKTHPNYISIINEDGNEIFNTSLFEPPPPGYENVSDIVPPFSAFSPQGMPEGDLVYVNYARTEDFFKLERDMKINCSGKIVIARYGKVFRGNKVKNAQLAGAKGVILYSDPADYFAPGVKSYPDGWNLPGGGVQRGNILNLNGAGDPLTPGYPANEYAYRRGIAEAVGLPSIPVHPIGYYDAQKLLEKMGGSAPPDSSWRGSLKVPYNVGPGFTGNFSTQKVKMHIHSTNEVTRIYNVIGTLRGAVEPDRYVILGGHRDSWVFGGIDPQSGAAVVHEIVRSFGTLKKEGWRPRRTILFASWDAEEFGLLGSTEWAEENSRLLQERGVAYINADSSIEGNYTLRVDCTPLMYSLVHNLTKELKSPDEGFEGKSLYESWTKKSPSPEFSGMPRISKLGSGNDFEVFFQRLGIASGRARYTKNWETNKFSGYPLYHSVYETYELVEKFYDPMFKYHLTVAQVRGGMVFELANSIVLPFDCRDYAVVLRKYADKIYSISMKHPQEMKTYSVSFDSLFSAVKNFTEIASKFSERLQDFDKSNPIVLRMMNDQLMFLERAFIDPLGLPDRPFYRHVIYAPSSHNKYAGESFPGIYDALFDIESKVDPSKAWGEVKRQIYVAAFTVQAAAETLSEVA

IC50 [nM]	SMILES
4.46	C[C@H](NC(=O)CCC[C@H](NC(=O)N[C@@H](CCC(=O)O)C(=O)O)C(=O)O)c1ccc(F)nc1
0.15	O=C(O)CC[C@H](NC(=O)N[C@@H](CCCC(=O)N(CCNC(=O)c1ccc(F)cc1)c1ccccc1)C(=O)O)C(=O)O
5.44	C[C@@H](NC(=O)CCC[C@H](NC(=O)N[C@@H](CCC(=O)O)C(=O)O)C(=O)O)c1ccc(F)cc1
1.19	O=C(O)CC[C@H](NC(=O)N[C@@H](CCCC(=O)NC(c1ccc(F)cc1)c1ccc(F)cc1)C(=O)O)C(=O)O
1.31	O=C(O)CC[C@H](NC(=O)N[C@@H](CCCC(=O)N1CCN(c2ccc(F)cc2)CC1)C(=O)O)C(=O)O
0.28	O=C(O)CC[C@H](NC(=O)N[C@@H](CCCC(=O)Nc1cccc(F)c1)C(=O)O)C(=O)O
2.91	O=C(O)CC[C@H](NC(=O)N[C@@H](CCCC(=O)NCc1cccc(F)c1)C(=O)O)C(=O)O
0.64	CN(Cc1ccc(F)cc1)C(=O)CCC[C@H](NC(=O)N[C@@H](CCC(=O)O)C(=O)O)C(=O)O
0.35	O=C(O)CC[C@H](NC(=O)N[C@@H](CCCC(=O)Nc1ccc(F)cc1)C(=O)O)C(=O)O
1.11	O=C(O)CC[C@H](NC(=O)N[C@@H](CCCC(=O)NCCNC(=O)c1ccc(F)nc1)C(=O)O)C(=O)O
2.11	O=C(O)CC[C@H](NC(=O)N[C@@H](CCCC(=O)NCc1ccccc1F)C(=O)O)C(=O)O
0.13	O=C(O)CC[C@H](NC(=O)N[C@@H](CCCC(=O)N(CCNC(=O)c1ccc(F)nc1)c1ccccc1)C(=O)O)C(=O)O
2.32	O=C(O)CC[C@H](NC(=O)N[C@@H](CCCC(=O)NCc1ccc(F)cc1)C(=O)O)C(=O)O
5.24	C[C@H](NC(=O)CCC[C@H](NC(=O)N[C@@H](CCC(=O)O)C(=O)O)C(=O)O)c1ccc(F)cc1
0.2	CN(C(=O)CCC[C@H](NC(=O)N[C@@H](CCC(=O)O)C(=O)O)C(=O)O)c1ccc(F)cc1
0.075	CN(C(=O)CCC[C@H](NC(=O)N[C@@H](CCC(=O)O)C(=O)O)C(=O)O)c1ccc(F)nc1
0.94	O=C(O)CC[C@H](NC(=O)N[C@@H](CCCC(=O)NCCNC(=O)c1ccc(F)cc1)C(=O)O)C(=O)O
0.99	O=C(O)CC[C@H](NC(=O)N[C@@H](CCCC(=O)Nc1ccc(F)nc1)C(=O)O)C(=O)O
0.46	CN(Cc1cccc(F)c1)C(=O)CCC[C@H](NC(=O)N[C@@H](CCC(=O)O)C(=O)O)C(=O)O
